# Experimental data from patent US10912819B2, “Neuroprotective peptides derived from activity-dependent neuroprotective protein for treatment of neurological diseases” (priority 2016, dated 2021).
# “Also recorded” adds a separate entry of the source.
# Columns and labels:
# Adnp^+/− mice [1] = test: Object recognition test; assay type: in vivo
# Protocol: Data are expressed as mean (±SEM) total time (sec) spent exploring all objects designated by relative discrimination index (a and b-exploration of familiar and novel object, respectively) in Phase 2 (A) and Phase 3 (B). Two identical objects were presented during Phase 1 (habituation), and one of the identical objects was replaced by a novel object during Phases 2 and 3. […] (C) 2-month-old mice (n=3-4 males or 6-8 females per experimental group) were treated daily, five times a week for 6 weeks with 0.5 μg NAP/mouse/day by intranasal administration in DD=7.5 mg/ml of NaCl, 1.7 mg/ml of citric acid monohydrate, 3 mg/ml of disodium phosphate dihydrate, and 0.2 mg/ml of 50% benzalkonium chloride solution. Animal performance in the object recognition test after four week treatment is shown. Data are expressed as mean (±SEM) as above, in the long retention choice phase (24 hours after habituation).
# (§1) Experiments performed as we described in Malishkevich et al., 2015 (37) and Amram et al., Mol Psychiatry. 2016 October; 21(10):1467-76 (7). 3-6 month-old male mice were used, drug application (0.5 μg/5 μl/mouse) was once daily, for one month and then behavioral assays were initiated together with drug application. In experiments with the vehicle termed DD (NAP-benzalkonium), drug application was at 2 months of age and continued as above. Open field experiments (16, 17) and elevated plus maze evaluations (18) were carried out as before.
# Animal performance in the object recognition memory test is shown. Two identical objects were presented during the habituation phase, and one of the identical objects was replaced by a novel object during the short retention choice phase (3 hours) and the long retention choice phase (24 hours).
# Adnp^+/− mice [2] = test: Social memory test; assay type: in vivo
# Protocol: FIG. 3. NAP treatment increases social memory. Animal performance is shown. (A, animals were as in FIG. 2A,B; n=9-12 per group). Data are expressed as mean±SEM total time (sec) spent exploring mice designated by relative discrimination index (D2=(b−a)/(a+b); b=time sniffing novel mouse, a=time sniffing familiar mouse). An empty wire cup and a cup containing target mouse (“familiar”) were placed in the center of the right or left chamber. After 3 hours, a novel mouse was put inside the empty cup, while the other cup contained the familiar mouse. The Adnp^+/− mice spent less time in exploring the novel mouse, as compared to Adnp^+/+ mice.
# as §1
# [3] = test system: Adnp^+/+ and Adnp^+/− male mice; test: Open field test; assay type: in vivo; details: 15 min
# Protocol: FIG. 5. […] Furthermore, NAP ameliorates motor dysfunction in Adnp^+/− mice. Each male mouse (n=9-12 per group) was placed in the middle of the field and allowed to freely explore the arena for 15 min. The duration in center zone (A), and the total path traveled (B) were measured by the Ethovision XT video tracking system (Noldus Inc. Leesburg, Va.).
# as §1
# Adnp^+/− mice [4] = test: Grip strength test; assay type: in vivo; details: male mice, treatment from 2 months of age, 0.5 μg NAP/mouse/day intranasal in DD, 5 weeks; p<0.05
# Protocol: The grip strength test measures forelimbs muscle strength using the UgoBasile 47200-Grip-Strength Meter. Each animal was tested five times and the peak force of each mouse was recorded. Data are expressed as mean±SEM.
# Akap6 [5] = test: Akap6 tongue gene expression, quantitative real-time PCR; assay type: in vivo, mice
# Protocol: Tongue total RNA was extracted from 4-month-old mice (treated with NAP/DD as above) and analyzed for Akap6, Hprt, and Gapdh mRNA expression by quantitative real-time PCR (n=6-14 replicates per experimental group). HPRT and Gapdh served as normalizing transcripts.
# (§2) Quantitative reverse transcription real time polymerase chain reaction (RT-PCR) was performed as before (18, 37).
# Akap6 [6] = test: Hippocampal Akap6 mRNA expression, quantitative real-time PCR; assay type: in vivo; details: 7.5-month-old mice treated with NAP/CB, normalized to Hprt
# Protocol: (§3) In females, NAP regulates genes deregulated with ADNP mutation in the hippocampus. […] Sexual dichotomy determined by t-test analysis was also observed for Akap6 and Chl1 expression between Adnp^+/− males and females (#p<0.05, ##p<0.01, ###p<0.001).
# as §2
# Chl1 = test: Hippocampal Chl1 mRNA expression, quantitative real-time PCR; assay type: in vivo; details: 7.5-month-old mice treated with NAP/CB, FIG. 8F
# Protocol: as §3, §2
# Adnp^+/− mouse pups = test: Ultrasonic vocalization (USV) of pups after dam separation; assay type: in vivo, mice
# Protocol: Furthermore, Auditory brain response (ABR) of 2.5 months old mice presents prolonged latency of hearing in Adnp+/− vs. Adnp+/+ females. (A) Results are presented as means±SEM. Ultrasonic vocalizations (USVs) were recorded in eight-day-old pups, subjected to daily subcutaneous injections of NAP (25 μg/ml saline) or saline (20 μl and 40 μl on postnatal days 1-4 and 5-7). The recordings were performed following dam separation according to published literature (Shu, W., et al. 2005. Proc Nati Acad Sci USA 102:9643-9648) NAP was injected as described before (Rotstein, M., et al., 2006. J Pharmacol Exp Ther 319:332-339).
# Language and speech deficits affect ADNP-mutated children (38, 39) and autistic children in general (51). In rodents, both speech and social communication are tested by analysis of isolation induced ultrasonic vocalizations (USVs) (52). As part of USV test, 25 μg of NAP were diluted in 1 ml saline and injected (subcutaneous) to Adnp^+/− mouse pups for 9 subsequent days (1-9 days of age) in doses of 20, 40 μl on days 1-4, 5-7 respectively (50).
# schizophrenia patients = details: clinical study; cited from earlier work
# [7] = test system: individuals suffering from progressive supranuclear palsy (PSP); details: 30 mg twice daily, changed formulation; cited from earlier work
# [8] = 5-month-old mice, 0.5 μg NAP/mouse/day intranasal in CB, 8 weeks, NAP vs vehicle p<0.05
# [9] = tongue, 4-month-old mice, NAP/DD, p<0.05
compound,measurement,setting,value
CC[C@H](C)[C@H](NC(=O)[C@H](CO)NC(=O)[C@@H](NC(=O)[C@@H]1CCCN1C(=O)[C@H](C)NC(=O)[C@@H](N)CC(N)=O)C(C)C)C(=O)N1CCC[C@H]1C(=O)N[C@@H](CCC(N)=O)C(=O)O [NAP],"relative discrimination index, long retention choice phase, females","Adnp^+/− mice [1]; 2-month-old mice, 0.5 μg NAP/mouse/day intranasal in DD, after four week treatment, p<0.05",normalizing the deficient female behavior
same,"relative discrimination index, long retention choice phase, males","Adnp^+/− mice [1]; 2-month-old mice, 0.5 μg NAP/mouse/day intranasal in DD, n=3-4",only a trend
same,"relative discrimination index, short retention phase","Adnp^+/− mice [1]; 2-month-old mice, NAP intranasal in DD",No differences were observed
same,"relative discrimination index novel vs familiar object, short retention choice phase","Adnp^+/− mice [1]; 3 hours after habituation, male mice 6-9 months, NAP in CB intranasal, NAP-treated vs Adnp^+/− p<0.001",Significant differences
same,"relative discrimination index novel vs familiar object, long retention choice phase","Adnp^+/− mice [1]; 24 hours after habituation, male mice 6-9 months, NAP in CB intranasal, NAP-treated vs Adnp^+/− p<0.001",Significant differences
same,"social memory, females","Adnp^+/− mice [2]; 2-month-old mice, 0.5 μg NAP/mouse/day intranasal in DD, 7 weeks, NAP vs vehicle p<0.05",significant difference
same,"social memory, females",Adnp^+/− mice [2]; [8],significant difference
same,"social memory, males",Adnp^+/− mice [2]; [8],significant difference
same,social memory (relative discrimination index novel vs familiar mouse),"Adnp^+/− mice [2]; male mice 6-9 months, NAP in CB intranasal, FIG. 3A, NAP vs vehicle p<0.001",improved social memory
same,duration in center zone,"[3]; male mice of both genotypes, NAP-treated vs vehicle-treated p<0.05",staying longer time at the center of the field
same,total path traveled (slight hyperactivity of Adnp^+/− mice),[3]; male mice,not affecting the slight hyperactivity
same,forelimbs muscle strength (grip force),Adnp^+/− mice [4],significantly improving it
same,dysregulated Akap6 expression in the tongue,"Akap6 [5]; FIG. 8 C,D",amelioration
same,Akap6 normalized to Gapdh: vehicle Adnp^+/− female mice compared to NAP-treated Adnp^+/− mice,"Akap6 [5]; tongue, 4-month-old mice, NAP/DD",significantly increased expression
same,Akap6 normalized to Gapdh: NAP-treated Adnp^+/− male mice compared to vehicle-treated,Akap6 [5]; [9],significantly increased
same,Akap6 normalized to Hprt: vehicle Adnp^+/− male mice compared to NAP-treated Adnp^+/− mice,Akap6 [5]; [9],significantly decreased
same,"hippocampal Akap6 expression, females, NAP-treated vs vehicle-treated Adnp^+/− mice",Akap6 [6],ameliorated; also recorded: significantly increased expression
same,hippocampal Chl1 expression,Chl1,also regulated by NAP
same,"USV per minute, male and female groups combined","Adnp^+/− mouse pups; Adnp^+/− pups, NAP daily injections, FIG. 9C",protected against this deficiency; also recorded: most significant increase
same,USV per minute by sex,"Adnp^+/− mouse pups; Adnp^+/− pups, NAP vs saline treated littermates, increased group size, FIG. 9B",normalizing it in females; also recorded: increased vocalization in both sexes
same,"number of USVs produced in a minute, Adnp^+/− pups","Adnp^+/− mouse pups; eight-day-old pups, daily subcutaneous NAP (25 μg/ml saline) vs saline, p=0.005",significant increase; also recorded: amelioration
same,"number of USVs produced in a minute, Adnp^+/+ pups","Adnp^+/− mouse pups; eight-day-old pups, daily subcutaneous NAP vs saline, p=0.73",no significant treatment effect
same,functional activities of daily living,schizophrenia patients,protection of functional activities of daily living
same,efficacy in PSP,[7],did not show efficacy
